In brackets after ≈: the same amount, converted by molar mass.
Columns and labels:
[1] = Terminal half life in it dosed rat lung by LC-MS/MS analysis; type: ADME, organism-based; conditions: inhaled or intranasal, read-out: beta t1/2 (converted)
[2] = target: PI3K p110 beta/p85 alpha (Homo sapiens, UniProt P42338); experiment: Inhibition of recombinant human His6-tagged PI3K p110beta/p85alpha using DiC8-PIP2 as substrate preincubated for 15 mins followed by substrate addition measured after 60 mins by ADP-Glo assay; type: protein-complex assay
Chain of PI3K p110 beta/p85 alpha (P27986 whole entry): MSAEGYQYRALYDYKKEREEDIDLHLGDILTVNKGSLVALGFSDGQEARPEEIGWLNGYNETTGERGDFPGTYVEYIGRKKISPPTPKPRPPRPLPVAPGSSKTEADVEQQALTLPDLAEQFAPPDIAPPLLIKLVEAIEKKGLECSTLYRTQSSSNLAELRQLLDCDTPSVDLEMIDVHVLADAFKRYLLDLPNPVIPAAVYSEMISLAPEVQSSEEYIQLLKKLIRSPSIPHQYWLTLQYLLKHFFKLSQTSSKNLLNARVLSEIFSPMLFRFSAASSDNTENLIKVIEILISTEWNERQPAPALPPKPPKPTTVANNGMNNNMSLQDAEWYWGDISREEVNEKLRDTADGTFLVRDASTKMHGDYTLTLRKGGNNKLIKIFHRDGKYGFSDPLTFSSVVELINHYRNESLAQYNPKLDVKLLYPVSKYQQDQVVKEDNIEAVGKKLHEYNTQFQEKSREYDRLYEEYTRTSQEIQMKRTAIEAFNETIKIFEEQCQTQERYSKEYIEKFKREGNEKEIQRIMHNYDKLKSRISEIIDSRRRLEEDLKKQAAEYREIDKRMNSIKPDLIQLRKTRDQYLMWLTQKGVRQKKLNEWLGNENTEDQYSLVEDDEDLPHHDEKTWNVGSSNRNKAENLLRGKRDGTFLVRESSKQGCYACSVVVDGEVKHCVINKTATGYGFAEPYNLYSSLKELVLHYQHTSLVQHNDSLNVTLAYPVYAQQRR
Chain of PI3K p110 beta/p85 alpha (P42338 whole entry): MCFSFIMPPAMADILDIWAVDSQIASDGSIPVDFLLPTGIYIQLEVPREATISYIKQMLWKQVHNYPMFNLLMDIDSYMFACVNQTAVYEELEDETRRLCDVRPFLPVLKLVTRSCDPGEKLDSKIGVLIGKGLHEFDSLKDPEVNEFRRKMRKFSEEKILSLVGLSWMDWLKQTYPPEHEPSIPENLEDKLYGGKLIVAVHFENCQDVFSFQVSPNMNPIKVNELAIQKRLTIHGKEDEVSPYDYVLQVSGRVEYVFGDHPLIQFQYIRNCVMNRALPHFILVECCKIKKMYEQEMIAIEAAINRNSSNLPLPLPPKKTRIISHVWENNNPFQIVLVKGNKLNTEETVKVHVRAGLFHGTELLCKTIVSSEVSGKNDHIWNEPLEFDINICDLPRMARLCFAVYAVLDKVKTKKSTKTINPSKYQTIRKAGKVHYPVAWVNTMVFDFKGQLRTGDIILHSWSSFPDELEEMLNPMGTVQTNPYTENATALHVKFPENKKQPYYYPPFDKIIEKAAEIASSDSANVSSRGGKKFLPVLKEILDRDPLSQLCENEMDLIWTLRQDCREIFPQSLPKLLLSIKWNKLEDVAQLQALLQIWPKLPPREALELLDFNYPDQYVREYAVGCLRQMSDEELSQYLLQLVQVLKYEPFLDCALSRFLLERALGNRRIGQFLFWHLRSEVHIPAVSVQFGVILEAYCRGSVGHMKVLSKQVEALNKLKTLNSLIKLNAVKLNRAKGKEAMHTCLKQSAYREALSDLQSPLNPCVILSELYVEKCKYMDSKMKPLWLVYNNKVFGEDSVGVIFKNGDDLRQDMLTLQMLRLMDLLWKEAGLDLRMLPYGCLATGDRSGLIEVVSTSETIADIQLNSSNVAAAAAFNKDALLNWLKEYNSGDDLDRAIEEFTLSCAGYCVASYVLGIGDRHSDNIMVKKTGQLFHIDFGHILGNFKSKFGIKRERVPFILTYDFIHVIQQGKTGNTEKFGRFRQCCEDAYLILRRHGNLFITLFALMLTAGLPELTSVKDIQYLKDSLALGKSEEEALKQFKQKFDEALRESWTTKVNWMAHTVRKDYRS

[3] = Lipophilicity, log D of the compound; type: physicochemical; conditions: octanol/water
[4] = target: PI3-kinase p110-alpha/p85-alpha (Homo sapiens, UniProt P42336); experiment: Inhibition of recombinant human His6-tagged PI3K p110alpha/p85alpha using DiC8-PIP2 as substrate preincubated for 15 mins followed by substrate addition measured after 60 mins by ADP-Glo assay; type: protein-complex assay
Chain of PI3-kinase p110-alpha/p85-alpha (P27986 whole entry): as the sequence (P27986 whole entry) above
Chain of PI3-kinase p110-alpha/p85-alpha (P42336 whole entry): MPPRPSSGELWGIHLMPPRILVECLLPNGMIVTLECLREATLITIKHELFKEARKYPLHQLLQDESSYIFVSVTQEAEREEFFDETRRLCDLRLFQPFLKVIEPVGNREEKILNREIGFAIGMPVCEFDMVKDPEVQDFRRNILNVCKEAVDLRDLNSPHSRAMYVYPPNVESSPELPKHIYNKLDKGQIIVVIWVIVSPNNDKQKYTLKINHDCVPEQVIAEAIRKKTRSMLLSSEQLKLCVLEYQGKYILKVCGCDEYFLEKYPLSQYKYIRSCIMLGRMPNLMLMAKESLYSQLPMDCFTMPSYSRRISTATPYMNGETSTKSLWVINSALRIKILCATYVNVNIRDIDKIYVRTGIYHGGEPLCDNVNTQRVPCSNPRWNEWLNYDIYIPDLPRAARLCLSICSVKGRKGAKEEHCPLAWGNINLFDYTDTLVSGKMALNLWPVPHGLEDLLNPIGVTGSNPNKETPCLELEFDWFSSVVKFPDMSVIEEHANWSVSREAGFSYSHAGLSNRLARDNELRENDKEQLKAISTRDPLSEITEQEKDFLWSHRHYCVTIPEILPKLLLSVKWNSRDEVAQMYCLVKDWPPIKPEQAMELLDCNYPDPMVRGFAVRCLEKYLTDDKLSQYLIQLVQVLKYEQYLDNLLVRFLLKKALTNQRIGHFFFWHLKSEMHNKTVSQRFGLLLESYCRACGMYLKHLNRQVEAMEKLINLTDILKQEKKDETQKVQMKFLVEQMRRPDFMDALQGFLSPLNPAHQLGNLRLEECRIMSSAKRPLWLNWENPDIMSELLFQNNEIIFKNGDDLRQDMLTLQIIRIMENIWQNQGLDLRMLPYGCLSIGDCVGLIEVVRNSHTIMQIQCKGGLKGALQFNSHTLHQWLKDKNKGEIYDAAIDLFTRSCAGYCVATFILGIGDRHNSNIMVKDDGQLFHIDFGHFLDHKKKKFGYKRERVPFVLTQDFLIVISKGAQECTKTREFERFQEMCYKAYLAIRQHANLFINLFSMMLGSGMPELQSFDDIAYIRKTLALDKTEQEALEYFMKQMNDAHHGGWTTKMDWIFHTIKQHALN

[5] = Metabolic stability in it dosed rat lungs assessed as compound remaining at 24 hrs post dose by LC-MS/MS analysis; type: ADME, organism-based; conditions: lung, inhaled or intranasal, read-out: Stability
[6] = Dissociation constant, basic pKa of compound; type: physicochemical
[7] = Dissociation constant, acidic pKa of compound; type: physicochemical
[8] = target: T1, Phosphatidylinositol 4,5-bisphosphate 3-kinase catalytic subunit delta isoform (Homo sapiens, UniProt O00329); experiment: Inhibition of PI3Kdelta in human JeKo1 cells assessed as reduction in Akt phosphorylation at Ser473 residue preincubated for 60 mins followed by Anti-IgM stimulation for 10 mins by TR-FRET assay; type: cell-based
T1 sequence (O00329 whole entry): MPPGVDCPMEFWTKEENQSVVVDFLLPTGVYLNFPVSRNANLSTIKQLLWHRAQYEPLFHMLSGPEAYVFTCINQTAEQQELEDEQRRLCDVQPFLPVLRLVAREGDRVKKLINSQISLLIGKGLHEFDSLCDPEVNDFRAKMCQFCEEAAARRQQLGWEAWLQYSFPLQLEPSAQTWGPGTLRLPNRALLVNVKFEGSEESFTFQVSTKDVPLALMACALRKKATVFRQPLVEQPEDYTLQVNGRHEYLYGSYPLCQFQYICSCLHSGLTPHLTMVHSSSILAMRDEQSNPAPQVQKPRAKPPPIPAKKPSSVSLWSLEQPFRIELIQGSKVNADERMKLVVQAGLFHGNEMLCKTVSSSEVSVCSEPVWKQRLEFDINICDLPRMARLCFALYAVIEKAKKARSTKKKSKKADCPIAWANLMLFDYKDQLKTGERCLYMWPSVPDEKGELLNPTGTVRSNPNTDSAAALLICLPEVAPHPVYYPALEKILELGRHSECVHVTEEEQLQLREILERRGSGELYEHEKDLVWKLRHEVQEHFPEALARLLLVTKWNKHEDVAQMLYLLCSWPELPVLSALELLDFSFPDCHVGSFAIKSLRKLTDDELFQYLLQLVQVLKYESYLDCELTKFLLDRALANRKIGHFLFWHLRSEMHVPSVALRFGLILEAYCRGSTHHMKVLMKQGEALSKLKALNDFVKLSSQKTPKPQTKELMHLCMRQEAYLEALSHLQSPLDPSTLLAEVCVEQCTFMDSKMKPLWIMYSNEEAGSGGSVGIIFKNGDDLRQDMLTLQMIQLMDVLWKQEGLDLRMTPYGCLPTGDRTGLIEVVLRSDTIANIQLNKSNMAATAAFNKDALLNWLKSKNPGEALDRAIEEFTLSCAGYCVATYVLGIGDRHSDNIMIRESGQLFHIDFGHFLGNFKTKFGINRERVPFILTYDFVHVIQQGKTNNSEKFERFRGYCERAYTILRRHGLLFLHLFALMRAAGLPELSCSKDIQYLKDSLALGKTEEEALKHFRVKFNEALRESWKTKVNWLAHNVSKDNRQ

[9] = target: Phosphatidylinositol 4,5-bisphosphate 3-kinase catalytic subunit gamma isoform (Homo sapiens, UniProt P48736); experiment: Inhibition of recombinant human His6-tagged PI3Kgamma (144 to 1102 residues) using DiC8-PIP2 as substrate preincubated for 15 mins followed by substrate addition measured after 60 mins by ADP-Glo assay
Chain of Phosphatidylinositol 4,5-bisphosphate 3-kinase catalytic subunit gamma isoform (P48736 whole entry, the tested form may be a part, canonical isoform): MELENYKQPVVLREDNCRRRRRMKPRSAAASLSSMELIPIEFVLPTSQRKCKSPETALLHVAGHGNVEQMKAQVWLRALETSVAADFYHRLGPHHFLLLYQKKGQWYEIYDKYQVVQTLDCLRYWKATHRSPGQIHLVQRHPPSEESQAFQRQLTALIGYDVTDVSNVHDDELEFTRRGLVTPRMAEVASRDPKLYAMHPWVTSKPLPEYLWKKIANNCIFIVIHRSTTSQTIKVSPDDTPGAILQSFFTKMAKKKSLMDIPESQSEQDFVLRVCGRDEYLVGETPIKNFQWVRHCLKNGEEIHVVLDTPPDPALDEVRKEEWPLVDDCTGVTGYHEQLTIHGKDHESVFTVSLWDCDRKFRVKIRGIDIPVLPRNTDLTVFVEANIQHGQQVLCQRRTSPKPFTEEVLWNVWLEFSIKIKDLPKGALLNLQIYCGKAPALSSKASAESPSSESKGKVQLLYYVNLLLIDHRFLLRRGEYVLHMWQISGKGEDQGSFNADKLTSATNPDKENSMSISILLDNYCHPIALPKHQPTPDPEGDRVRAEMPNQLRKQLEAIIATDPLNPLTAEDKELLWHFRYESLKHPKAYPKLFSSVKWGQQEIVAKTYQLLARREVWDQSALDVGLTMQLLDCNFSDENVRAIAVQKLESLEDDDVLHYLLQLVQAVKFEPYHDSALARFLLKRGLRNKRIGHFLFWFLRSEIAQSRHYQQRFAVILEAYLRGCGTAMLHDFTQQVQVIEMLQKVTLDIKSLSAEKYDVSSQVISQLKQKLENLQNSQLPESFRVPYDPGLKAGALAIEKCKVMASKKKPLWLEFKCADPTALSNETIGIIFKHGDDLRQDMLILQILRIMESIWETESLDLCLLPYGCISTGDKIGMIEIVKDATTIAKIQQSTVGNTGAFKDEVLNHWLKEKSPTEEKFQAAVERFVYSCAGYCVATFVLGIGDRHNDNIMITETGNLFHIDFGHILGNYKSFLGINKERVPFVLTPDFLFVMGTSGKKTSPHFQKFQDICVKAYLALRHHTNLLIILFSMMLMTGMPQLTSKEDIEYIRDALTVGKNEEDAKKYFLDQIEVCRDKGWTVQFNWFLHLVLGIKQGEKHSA

[10] = target: PI3-kinase p110-delta/p85-alpha (Homo sapiens, UniProt O00329); experiment: Inhibition of recombinant human His6-tagged PI3K p110delta/p85alpha using DiC8-PIP2 as substrate preincubated for 15 mins followed by substrate addition measured after 60 mins by ADP-Glo assay; type: protein-complex assay
Chain of PI3-kinase p110-delta/p85-alpha (P27986 whole entry, one chain of several): as the sequence (P27986 whole entry) above

[11] = Solubility of the compound; type: physicochemical
[12] = Metabolic stability in it dosed rat lungs assessed as compound remaining at 4 hrs post dose by LC-MS/MS analysis; type: ADME, organism-based; conditions: lung, inhaled or intranasal, read-out: Stability
[13] = Metabolic stability in it dosed rat lungs assessed as compound remaining at 3 mins post dose by LC-MS/MS analysis; type: ADME, organism-based; conditions: lung, inhaled or intranasal, read-out: Stability

Row | Structure (SMILES) | half-life [1] | IC50 [2] | logD [3] | IC50 [4] | remaining at 24 h [5] | pKa [6] | pKa [7] | IC50 [8] | IC50 [9] | IC50 [10] | solubility [11] | remaining at 4 h [12] | remaining at 0.05 h [13]
1 | Cc1csc2cc([C@H](C)Nc3ncnc(N)c3C#N)c(-c3cccc(CN4CCC(CN(C)CC(C)C)CC4)c3)c(=O)n12 | 12 h | 50.1 nM | 2.1 | ≥ 631 nM | 3.3% | 8 | 9.8 | 2.51 nM | ≥ 200 nM | 0.631 nM | – | – | –
2 | Cc1csc2cc([C@H](C)Nc3ncnc(N)c3C#N)c(-c3cccc(CN4CCC(CN(C)Cc5ccccn5)CC4)c3)c(=O)n12 | 10.9 h | 63.1 nM | 2 | ≥ 631 nM | 5.2% | 7 | 9 | 2 nM | ≥ 200 nM | 0.794 nM | – | – | –
3 | Cc1csc2cc([C@H](C)Nc3ncnc(N)c3C#N)c(-c3cccc(CN(C)CCCCN4C[C@@H](C)O[C@@H](C)C4)c3)c(=O)n12 | 7.6 h | 79.4 nM | 1.5 | ≥ 631 nM | 3.9% | 6.3 | 8.9 | 6.31 nM | ≥ 200 nM | 1.26 nM | – | – | –
4 | Cc1csc2cc([C@H](C)Nc3ncnc(N)c3C#N)c(-c3cccc(CN(C)CCCN4C[C@@H](C)O[C@@H](C)C4)c3)c(=O)n12 | 5.9 h | 126 nM | 1.5 | ≥ 631 nM | 0.8% | 5.7 | 8.5 | 5.01 nM | ≥ 200 nM | 1.26 nM | – | – | –
5 | Cc1csc2cc([C@H](C)Nc3ncnc(N)c3C#N)c(-c3cccc(CC4CCN(C(C)C)CC4)c3)c(=O)n12 | – | 398 nM | 1.1 | 1000 nM | – | – | – | 1.58 nM | 251 nM | 0.631 nM | – | – | –
6 | Cc1csc2cc([C@H](C)Nc3ncnc(N)c3C#N)c(-c3cccc(CN(C)C)c3)c(=O)n12 | 2.3 h | 63.1 nM | 0.8 | 3160 nM | 0% | – | – | 1.58 nM | 631 nM | 0.794 nM | 956 µM (≈ 439 µg/mL) | 0.2% | –
7 | CCN(CCN1CCOCC1)Cc1cccc(-c2c([C@H](C)Nc3ncnc(N)c3C#N)cc3scc(C)n3c2=O)c1 | – | 251 nM | 1.4 | ≥ 631 nM | 0% | 4 | 8 | 1.26 nM | ≥ 200 nM | 0.794 nM | – | – | –
8 | Cc1csc2cc([C@H](C)Nc3ncnc(N)c3C#N)c(-c3cccc(OCCN(C)C)c3)c(=O)n12 | – | 200 nM | 0.7 | 7940 nM | – | – | – | 6.31 nM | 316 nM | 1.58 nM | – | – | –
9 | Cc1csc2cc([C@H](C)Nc3ncnc(N)c3C#N)c(-c3cccc(CCN(C)C)c3)c(=O)n12 | – | 50.1 nM | 0.5 | 1260 nM | – | – | – | 2.51 nM | > 1000 nM | 0.794 nM | – | – | –
10 | Cc1csc2cc([C@H](C)Nc3ncnc(N)c3C#N)c(-c3cccc(CN(C)CC(C)C)c3)c(=O)n12 | – | 100 nM | 2.3 | 2000 nM | 0% | – | – | 0.631 to 1.58 nM | > 794 nM | 0.501 nM | 12 µM (≈ 6.02 µg/mL) | 0% | 6.5%
11 | Cc1csc2cc([C@H](C)Nc3ncnc(N)c3C#N)c(-c3ccccc3)c(=O)n12 | < 0.1 h | 50.1 nM | 2.7 | 631 nM | 0% | – | – | 0.631 to 0.794 nM | 12.6 nM | 0.398 nM | 77 µM (≈ 31 µg/mL) | 0% | 2%

The next compounds have a lower IC50 [2] than those just listed; values first:

Row | half-life [1] | IC50 [2] | logD [3] | IC50 [4] | remaining at 24 h [5] | pKa [6] | pKa [7] | IC50 [8] | IC50 [9] | IC50 [10] | solubility [11] | remaining at 4 h [12] | remaining at 0.05 h [13] | Structure (SMILES)
12 | 13 h | 12.6 nM | 3.2 | ≥ 631 nM | 3.3% | 7.5 | 8.8 | 3.16 nM | ≥ 200 nM | 0.631 nM | – | – | – | Cc1csc2cc([C@H](C)Nc3ncnc(N)c3C#N)c(-c3cccc(CN(C)CCCN(C)Cc4ccc(Cl)cc4)c3)c(=O)n12
13 | 1.1 h | 39.8 nM | 0.5 | 1580 nM | 0% | – | – | 2.51 nM | 501 nM | 0.501 nM | 954 µM (≈ 450 µg/mL) | 0.5% | – | Cc1csc2cc([C@H](C)Nc3ncnc(N)c3C#N)c(-c3cccc(CN4CCC4)c3)c(=O)n12
14 | 4.9 h | 10 nM | -0.2 | 1260 nM | 0% | – | – | 20 nM | 631 nM | 0.794 nM | > 1000 µM | 2.5% | – | CNCc1cccc(-c2c([C@H](C)Nc3ncnc(N)c3C#N)cc3scc(C)n3c2=O)c1
15 | 17.6 h | 15.8 nM | 2.2 | ≥ 631 nM | 7.4% | 7 | 9.1 | 2 nM | ≥ 200 nM | 0.501 nM | – | – | – | Cc1csc2cc([C@H](C)Nc3ncnc(N)c3C#N)c(-c3cccc(CN(C)CCCCN(C)Cc4ccccc4)c3)c(=O)n12
16 | 3.5 h | 7.94 nM | 2.3 | 501 nM | 0% | – | – | 1.26 nM | 316 nM | 0.398 nM | 699 µM (≈ 425 µg/mL) | 4.8% | – | Cc1csc2cc([C@H](C)Nc3ncnc(N)c3C#N)c(-c3cccc(CNCCCCOCCc4ccccc4)c3)c(=O)n12
17 | 1.6 h | 7.94 nM | -0.3 | 1260 nM | 0% | – | – | 39.8 nM | 200 nM | 0.631 nM | > 1000 µM | 2% | – | Cc1csc2cc([C@H](C)Nc3ncnc(N)c3C#N)c(-c3cccc(CN)c3)c(=O)n12
18 | 1.3 h | 20 nM | 0.7 | 1260 nM | 0% | – | – | 2.51 nM | 398 nM | 0.631 nM | > 1000 µM | 0.8% | – | COCCNCc1cccc(-c2c([C@H](C)Nc3ncnc(N)c3C#N)cc3scc(C)n3c2=O)c1
19 | 4.2 h | 20 nM | 0.6 | ≥ 631 nM | 0.1% | 4.7 | 9.6 | 12.6 nM | ≥ 200 nM | 0.631 nM | – | – | – | Cc1csc2cc([C@H](C)Nc3ncnc(N)c3C#N)c(-c3cccc(CNCCN4CCOCC4)c3)c(=O)n12
